From patent US8859009B2, “Method of fixing antibacterial agent and article obtained by the method” (Hiroshima University, priority 2008, dated 2014)

Tested on: strain GDH18 of Candida Albicans
Test: Antibacterial-property test on hemocytometer cover glass test pieces (colour change of agar), Example 3
Assay type: cell-based
Procedure: A hemocytometer cover glass was used as a test piece of an article on which an antibacterial agent is fixed. A strain GDH18 of Candida Albicans was used as the bacteria for use in the antibacterial-property test. The bacteria was incubated on Sabouraud agar for 18 hours and a bacteria solution having bacteria concentration of 1×10^6 cells/mL was prepared using ultra pure water (MQ water). The test pieces were immersed for 1 minute in approximately 30 mL of ozone water (0.4 to 0.6 ppm) produced by using ultra pure water and “Ozone Dash” manufactured by Ozone Total System Co., Ltd. The test pieces were then drained on a filtering paper and immersed for 5 minutes in following aqueous solutions, respectively: Each test piece was then taken out of the aqueous solution, immediately washed with water such that excess antibacterial composition was removed, whereby test pieces for the antibacterial-property test were obtained. […] Each test piece was left for 2 hours at the room temperature to wait for sedimentation of the bacteria. Thereafter, 5 mL of Sabouraud agar containing chlorophenol red as a pH indicator (Candida yellow agar, manufactured by Fuji Pharma Co., Ltd.) was added to each test piece and the respective test pieces were continually incubated at 37° C. […] Antibacterial property was evaluated using such change in color as described above of the agar as an index.

CCCCCCCCCCCCCCCCCC[N+](C)(C)CCC[Si](OCC)(OCC)OCC.[Cl-] [EtAC, octadecyldimethyl(3-triethoxysilylpropyl)ammonium chloride]
antibacterial performance (control without ozone water treatment, EtAC treatment 5 minutes): hardly exhibited antibacterial performance | color of the agar (upper control: immersed in MQ water (no ozone water), then 70% ethanol solution of EtAC 5 minutes, 45 hours): strongly yellow | number of bacteria cells (upper control: immersed in MQ water (no ozone water), then 70% ethanol solution of EtAC 5 minutes, 45 hours, from agar colour): ≥ 5e+07 mL⁻¹
